Patent US11331289B2, “Antimicrobial composition” (priority 2017, dated 2022)

What was measured:
Test in all cases: Time-killing curve, broth macrodilution
[1] = tested on: S. aureus n°16 302; format: cell-based, Staphylococcus aureus
Protocol: (§1) The time-killing curve is used to determine the bactericidal or bacteriostatic activity of the antibimicrobial substances. Time-killing curves of Oxyclozanide against canine isolates of Staphylococcus aureus and Staphylococcus pseudintermedius were obtained using broth macrodilution method. After contact of different fixed amounts of Oxyclozanide with an inoculum, viable bacteria are counted immediately after contact and after 1, 3, 6 and 24 hours. Counting is performed on agar medium without antimicrobial substance.
(§2) Results are analyzed by plotting log10 CFU/ml versus time for each tested concentration. Bactericidal activity as defined by 99.9% killing of the inoculum is determined from time-killing curves by noting the presence of a ≥3 log10 decrease in CFU/ml.
(§3) Bacterial strains were sub-cultured twice from one cryobead on Mueller Hinton agar and incubated at 37° C. for 18-24 hours. From the second subcultures, isolated colonies were transferred into tubes containing 2 ml of Mueller Hinton Broth in order to obtain bacterial suspensions at 10^8 CFU/ml, knowing that an optical density of 0.1 at 620 nm corresponds to bacterial suspension at 10^8 CFU/ml. Then, bacterial suspensions were adjusted between 5 10^7 and 1 10^8 CFU/ml by dilution in Mueller Hinton broth.
(§4) For each concentration of Oxyclozanide to be tested, 50 μl of working solution concentrated 100× and […] of inoculum were added to 5 ml of Mueller-Hinton broth. Thus, the range of tested concentrations was from 0.125 to 8 μg/ml and the concentration of micro-organism was between 1 10^6 and 2 10^6 CFU/ml.
(§5) At the same time, a tube without Oxyclozanide was prepared: 50 μl of DMSO and 100 μl of inoculum were added to 5 ml of Mueller-Hinton broth and used as growth control. Tubes were incubated at 36° C. under agitation.
(§6) The numbers of viable bacteria were determined immediately after contact (TO) and after 1, 3, 6 and 24 h of incubation.
(§7) At each time, samples of each tube were taken and dilutions were performed in Mueller-Hinton broth. Then, dilutions were spread on Mueller Hinton agar with spiral plater. After 18 h of incubation at 36° C., counting of colonies was performed with automatic colony counter which determine the concentrations of viable bacteria. The technique employed made it possible to quantify bacterial concentrations as low as 20 CFU/ml.
(§8) Time-killing curves were plotted for each concentration of Oxyclozanide using Microsoft Excel software. The number or surviving bacteria was expressed as log10 CFU/ml. The time-killing curves of each strain represent the decrease in the viable bacteria count as a function of time for the Oxyclozanide concentrations concerned.
(§9) Bactericidal activity as defined by 99.9% killing of the inoculum is determined from time-killing curves by noting the presence of a ≥3 log10 decrease in CFU/ml.

[2] = tested on: S. aureus n°16 315; format: cell-based, Staphylococcus aureus
Protocol: as §1, §2, §3, §4, §5, §6, §7, §8, §9

[3] = tested on: S. pseudointermedius n°15 401; format: cell-based, Staphylococcus pseudintermedius
Protocol: as §1, §2, §3, §4, §5, §6, §7, §8, §9

## O=C(Nc1cc(Cl)cc(Cl)c1O)c1c(O)c(Cl)cc(Cl)c1Cl [Oxyclozanide]
[1]; 0.25 μg/ml (½ MIC), 1 h
  Bacteria reducing rate: 0.0 Δ log10 CFU/ml
[1]; 0.25 μg/ml (½ MIC), 3 h
  Bacteria reducing rate: 0.1 Δ log10 CFU/ml
[1]; 0.25 μg/ml (½ MIC), 6 h
  Bacteria reducing rate: 0.6 Δ log10 CFU/ml
[1]; 0.25 μg/ml (½ MIC), 24 h
  Bacteria reducing rate: 1.7 Δ log10 CFU/ml
[1]; 0.5 μg/ml (MIC), 1 h
  Bacteria reducing rate: 0.0 Δ log10 CFU/ml
[1]; 0.5 μg/ml (MIC), 3 h
  Bacteria reducing rate: 0.0 Δ log10 CFU/ml
[1]; 0.5 μg/ml (MIC), 6 h
  Bacteria reducing rate: −0.3 Δ log10 CFU/ml
[1]; 0.5 μg/ml (MIC), 24 h
  Bacteria reducing rate: 1.6 Δ log10 CFU/ml
[1]; 1 μg/ml (2 MIC), 1 h
  Bacteria reducing rate: 0.0 Δ log10 CFU/ml
[1]; 1 μg/ml (2 MIC), 3 h
  Bacteria reducing rate: 0.0 Δ log10 CFU/ml
[1]; 1 μg/ml (2 MIC), 6 h
  Bacteria reducing rate: −0.2 Δ log10 CFU/ml
[1]; 1 μg/ml (2 MIC), 24 h
  Bacteria reducing rate: 1.5 Δ log10 CFU/ml
  Viable bacteria count: 7.9 Log10 CFU/ml
[1]; 2 μg/ml (4 MIC), 1 h
  Bacteria reducing rate: 0.0 Δ log10 CFU/ml
[1]; 2 μg/ml (4 MIC), 3 h
  Bacteria reducing rate: −0.1 Δ log10 CFU/ml
[1]; 2 μg/ml (4 MIC), 6 h
  Bacteria reducing rate: −0.5 Δ log10 CFU/ml
  Viable bacteria count: 6.0 Log10 CFU/ml
[1]; 2 μg/ml (4 MIC), 24 h
  Bacteria reducing rate: −2.5 Δ log10 CFU/ml
[1]; 4 μg/ml (8 MIC), 0 h
  Viable bacteria count: 6.5 Log10 CFU/ml
[1]; 4 μg/ml (8 MIC), 1 h
  Bacteria reducing rate: −0.2 Δ log10 CFU/ml
[1]; 4 μg/ml (8 MIC), 3 h
  Bacteria reducing rate: −0.7 Δ log10 CFU/ml
  Viable bacteria count: 5.8 Log10 CFU/ml
[1]; 4 μg/ml (8 MIC), 6 h
  Bacteria reducing rate: −2.3 Δ log10 CFU/ml
[1]; 4 μg/ml (8 MIC), 24 h
  Bacteria reducing rate: −4.1 Δ log10 CFU/ml
  Viable bacteria count: 2.4 Log10 CFU/ml
[1]; 8 μg/ml (16 MIC), 1 h
  Bacteria reducing rate: −0.8 Δ log10 CFU/ml
  Viable bacteria count: 5.7 Log10 CFU/ml
[1]; 8 μg/ml (16 MIC), 3 h
  Bacteria reducing rate: −2.3 Δ log10 CFU/ml
[1]; 8 μg/ml (16 MIC), 6 h
  Bacteria reducing rate: −3.8 Δ log10 CFU/ml
  Viable bacteria count: 2.7 Log10 CFU/ml
[1]; 8 μg/ml (16 MIC), 24 h
  Bacteria reducing rate: −5.2 Δ log10 CFU/ml
[2]; 0.25 μg/ml (½ MIC), 1 h
  Bacteria reducing rate: 0.3 Δ log10 CFU/ml
  Viable bacteria count: 6.7 Log10 CFU/ml
[2]; 0.25 μg/ml (½ MIC), 3 h
  Bacteria reducing rate: 0.3 Δ log10 CFU/ml
  Viable bacteria count: 6.7 Log10 CFU/ml
[2]; 0.25 μg/ml (½ MIC), 6 h
  Bacteria reducing rate: 0.7 Δ log10 CFU/ml
[2]; 0.25 μg/ml (½ MIC), 24 h
  Bacteria reducing rate: 1.8 Δ log10 CFU/ml
[2]; 0.5 μg/ml (MIC), 1 h
  Bacteria reducing rate: −0.1 Δ log10 CFU/ml
[2]; 0.5 μg/ml (MIC), 3 h
  Bacteria reducing rate: 0.1 Δ log10 CFU/ml
  Viable bacteria count: 6.6 Log10 CFU/ml
[2]; 0.5 μg/ml (MIC), 6 h
  Bacteria reducing rate: −0.2 Δ log10 CFU/ml
[2]; 0.5 μg/ml (MIC), 24 h
  Bacteria reducing rate: 0.5 Δ log10 CFU/ml
  Viable bacteria count: 7.0 Log10 CFU/ml
[2]; 1 μg/ml (2 MIC), 1 h
  Bacteria reducing rate: 0.0 Δ log10 CFU/ml
[2]; 1 μg/ml (2 MIC), 3 h
  Bacteria reducing rate: 0.1 Δ log10 CFU/ml
  Viable bacteria count: 6.6 Log10 CFU/ml
[2]; 1 μg/ml (2 MIC), 6 h
  Bacteria reducing rate: −0.3 Δ log10 CFU/ml
[2]; 1 μg/ml (2 MIC), 24 h
  Bacteria reducing rate: −1.2 Δ log10 CFU/ml
[2]; 2 μg/ml (4 MIC), 1 h
  Bacteria reducing rate: 0.1 Δ log10 CFU/ml
  Viable bacteria count: 6.5 Log10 CFU/ml
[2]; 2 μg/ml (4 MIC), 3 h
  Bacteria reducing rate: 0.2 Δ log10 CFU/ml
  Viable bacteria count: 6.6 Log10 CFU/ml
[2]; 2 μg/ml (4 MIC), 6 h
  Bacteria reducing rate: −1.1 Δ log10 CFU/ml
[2]; 2 μg/ml (4 MIC), 24 h
  Bacteria reducing rate: −2.3 Δ log10 CFU/ml
[2]; 4 μg/ml (8 MIC), 1 h
  Bacteria reducing rate: 0.0 Δ log10 CFU/ml
[2]; 4 μg/ml (8 MIC), 3 h
  Bacteria reducing rate: −0.7 Δ log10 CFU/ml
  Viable bacteria count: 5.7 Log10 CFU/ml
[2]; 4 μg/ml (8 MIC), 6 h
  Bacteria reducing rate: −1.8 Δ log10 CFU/ml
  Viable bacteria count: 4.6 Log10 CFU/ml
[2]; 4 μg/ml (8 MIC), 24 h
  Bacteria reducing rate: −5.1 Δ log10 CFU/ml
[2]; 8 μg/ml (16 MIC), 1 h
  Bacteria reducing rate: 0.1 Δ log10 CFU/ml
[2]; 8 μg/ml (16 MIC), 3 h
  Bacteria reducing rate: −1.5 Δ log10 CFU/ml
  Viable bacteria count: 4.8 Log10 CFU/ml
[2]; 8 μg/ml (16 MIC), 6 h
  Bacteria reducing rate: −2.3 Δ log10 CFU/ml
[2]; 8 μg/ml (16 MIC), 24 h
  Bacteria reducing rate: −5.0 Δ log10 CFU/ml
[3]; 0.125 μg/ml (MIC), 0 h
  Viable bacteria count: 5.9 Log10 CFU/ml
[3]; 0.125 μg/ml (MIC), 1 h
  Bacteria reducing rate: 0.3 Δ log10 CFU/ml
[3]; 0.125 μg/ml (MIC), 3 h
  Bacteria reducing rate: 1.2 Δ log10 CFU/ml
[3]; 0.125 μg/ml (MIC), 6 h
  Bacteria reducing rate: 2.2 Δ log10 CFU/ml
[3]; 0.125 μg/ml (MIC), 24 h
  Bacteria reducing rate: 2.8 Δ log10 CFU/ml
  Viable bacteria count: 8.7 Log10 CFU/ml
[3]; 0.25 μg/ml (2 MIC), 0 h
  Viable bacteria count: 6.0 Log10 CFU/ml
[3]; 0.25 μg/ml (2 MIC), 1 h
  Bacteria reducing rate: 0.1 Δ log10 CFU/ml
[3]; 0.25 μg/ml (2 MIC), 3 h
  Bacteria reducing rate: 0.8 Δ log10 CFU/ml
  Viable bacteria count: 6.8 Log10 CFU/ml
[3]; 0.25 μg/ml (2 MIC), 6 h
  Bacteria reducing rate: 2.2 Δ log10 CFU/ml
[3]; 0.25 μg/ml (2 MIC), 24 h
  Bacteria reducing rate: 1.3 Δ log10 CFU/ml
[3]; 0.5 μg/ml (4 MIC), 0 h
  Viable bacteria count: 6.0 Log10 CFU/ml
[3]; 0.5 μg/ml (4 MIC), 1 h
  Bacteria reducing rate: 0.1 Δ log10 CFU/ml
[3]; 0.5 μg/ml (4 MIC), 3 h
  Bacteria reducing rate: 0.4 Δ log10 CFU/ml
[3]; 0.5 μg/ml (4 MIC), 6 h
  Bacteria reducing rate: 1.6 Δ log10 CFU/ml
[3]; 0.5 μg/ml (4 MIC), 24 h
  Bacteria reducing rate: 1.4 Δ log10 CFU/ml
[3]; 1 μg/ml (8 MIC), 0 h
  Viable bacteria count: 6.0 Log10 CFU/ml
[3]; 1 μg/ml (8 MIC), 1 h
  Bacteria reducing rate: 0.1 Δ log10 CFU/ml
[3]; 1 μg/ml (8 MIC), 3 h
  Bacteria reducing rate: 0.0 Δ log10 CFU/ml
  Viable bacteria count: 6.0 Log10 CFU/ml
[3]; 1 μg/ml (8 MIC), 6 h
  Bacteria reducing rate: 0.2 Δ log10 CFU/ml
[3]; 1 μg/ml (8 MIC), 24 h
  Bacteria reducing rate: 0.7 Δ log10 CFU/ml
  Viable bacteria count: 6.7 Log10 CFU/ml
[3]; 2 μg/ml (16 MIC), 0 h
  Viable bacteria count: 6.0 Log10 CFU/ml
[3]; 2 μg/ml (16 MIC), 1 h
  Bacteria reducing rate: −0.1 Δ log10 CFU/ml
  Viable bacteria count: 5.9 Log10 CFU/ml
[3]; 2 μg/ml (16 MIC), 3 h
  Bacteria reducing rate: −0.1 Δ log10 CFU/ml
  Viable bacteria count: 5.9 Log10 CFU/ml
[3]; 2 μg/ml (16 MIC), 6 h
  Bacteria reducing rate: 0.3 Δ log10 CFU/ml
[3]; 2 μg/ml (16 MIC), 24 h
  Bacteria reducing rate: −0.1 Δ log10 CFU/ml
  Viable bacteria count: 5.9 Log10 CFU/ml
[3]; 4 μg/ml (32 MIC), 0 h
  Viable bacteria count: 5.9 Log10 CFU/ml
[3]; 4 μg/ml (32 MIC), 1 h
  Bacteria reducing rate: 0.1 Δ log10 CFU/ml
  Viable bacteria count: 6.0 Log10 CFU/ml
[3]; 4 μg/ml (32 MIC), 3 h
  Bacteria reducing rate: 0.0 Δ log10 CFU/ml
  Viable bacteria count: 5.9 Log10 CFU/ml
[3]; 4 μg/ml (32 MIC), 6 h
  Bacteria reducing rate: −0.7 Δ log10 CFU/ml
[3]; 4 μg/ml (32 MIC), 24 h
  Bacteria reducing rate: −3.4 Δ log10 CFU/ml
  Viable bacteria count: 2.5 Log10 CFU/ml
[3]; 8 μg/ml (64 MIC), 0 h
  Viable bacteria count: 6.0 Log10 CFU/ml
[3]; 8 μg/ml (64 MIC), 1 h
  Bacteria reducing rate: −0.4 Δ log10 CFU/ml
  Viable bacteria count: 5.6 Log10 CFU/ml
[3]; 8 μg/ml (64 MIC), 3 h
  Bacteria reducing rate: −2.7 Δ log10 CFU/ml
  Viable bacteria count: 3.3 Log10 CFU/ml
[3]; 8 μg/ml (64 MIC), 6 h
  Bacteria reducing rate: −4.4 Δ log10 CFU/ml
[3]; 8 μg/ml (64 MIC), 24 h
  Bacteria reducing rate: −4.7 Δ log10 CFU/ml
